Data reported in ChEMBL document CHEMBL1201862, “PubChem BioAssay data set” (2004).
“And” between values parts separate entries of the source, which are not always exact repeats. Equal values may be shown once.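 Exposure lasted 48 hours, with cells grown in 96-well plates and compounds tested at five concentrations. GI50 is the concentration that inhibits growth by half.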 The source made the active and inactive calls. Cut-off read from the data, not from the text of the source: active = GI50 up to about 1.1 µM and inactive = higher.

What was measured:
Assay in all cases: growth of human tumour cells (NCI), 48 h
786-0 = system: 786-0
A498 = system: A498
A549 = system: A549
ACHN = system: ACHN
COLO 205 = system: COLO 205
DU-145 = system: DU-145
EKVX = system: EKVX
HCC 2998 = system: HCC 2998
HCT-116 = system: HCT-116
HCT-15 = system: HCT-15
HL-60 = system: HL-60
HOP-62 = system: HOP-62
HOP-92 = system: HOP-92
HT-29 = system: HT-29
Hs-578T = system: Hs-578T
IGROV-1 = system: IGROV-1
K562 = system: K562
KM12 = system: KM12
LOX IMVI = system: LOX IMVI
M14 = system: M14
MCF7 = system: MCF7
MDA-MB-231 = system: MDA-MB-231
MDA-MB-435 = system: MDA-MB-435
MDA-N = system: MDA-N
MOLT-4 = system: MOLT-4
Malme-3M = system: Malme-3M
NCI-H226 = system: NCI-H226
NCI-H23 = system: NCI-H23
NCI-H460 = system: NCI-H460
NCI-H522 = system: NCI-H522
NCI/ADR-RES = system: NCI/ADR-RES
OVCAR-3 = system: OVCAR-3
OVCAR-4 = system: OVCAR-4
OVCAR-5 = system: OVCAR-5
OVCAR-8 = system: OVCAR-8
PC-3 = system: PC-3
RPMI-8226 = system: RPMI-8226
RXF 393 = system: RXF 393
SF-268 = system: SF-268
SF-295 = system: SF-295
SF-539 = system: SF-539
SK-MEL-28 = system: SK-MEL-28
SK-MEL-2 = system: SK-MEL-2
SK-MEL-5 = system: SK-MEL-5
SK-OV-3 = system: SK-OV-3
SN12C = system: SN12C
SNB-19 = system: SNB-19
SR = system: SR
SW-620 = system: SW-620
T47D = system: T47D
TK-10 = system: TK-10
U-251 = system: U-251
UACC-257 = system: UACC-257
UACC-62 = system: UACC-62
UO-31 = system: UO-31
SNB-75 = system: SNB-75

For `C#C[C@@]1(O)CCCC2=CC3(CC[C@]21C)SCCS3`, the GI50 (786-0) was > 100 µM (inactive), the GI50 (A498) was > 100 µM (inactive) and the GI50 (A549) was > 100 µM (inactive). For the same compound, the GI50 (ACHN) was > 100 µM (inactive), the GI50 (COLO 205) was > 100 µM (inactive) and the GI50 (DU-145) was > 100 µM (inactive). For the same compound, the GI50 (EKVX) was > 100 µM (inactive), the GI50 (HCC 2998) was > 100 µM (inactive) and the GI50 (HCT-116) was > 100 µM (inactive). For the same compound, the GI50 (HCT-15) was > 100 µM, the GI50 (HL-60) was 45.6 µM (inactive) and the GI50 (HOP-62) was > 100 µM (inactive). For the same compound, the GI50 (HOP-92) was > 100 µM (inactive), the GI50 (HT-29) was > 100 µM (inactive) and the GI50 (Hs-578T) was > 100 µM (inactive). For the same compound, the GI50 (IGROV-1) was > 100 µM (inactive), the GI50 (K562) was > 100 µM (inactive) and the GI50 (KM12) was > 100 µM (inactive). For the same compound, the GI50 (LOX IMVI) was > 100 µM (inactive), the GI50 (M14) was > 100 µM (inactive) and the GI50 (MCF7) was > 100 µM (inactive). The GI50 (MDA-MB-231) was > 100 µM (inactive), the GI50 (MDA-MB-435) was > 100 µM (inactive) and the GI50 (MDA-N) was > 100 µM (inactive). The GI50 (MOLT-4) was > 100 µM (inactive), the GI50 (Malme-3M) was > 100 µM (inactive) and the GI50 (NCI-H226) was > 100 µM (inactive). The GI50 (NCI-H23) was > 100 µM (inactive), the GI50 (NCI-H460) was > 100 µM (inactive) and the GI50 (NCI-H522) was > 100 µM (inactive). The GI50 (NCI/ADR-RES) was > 100 µM (inactive), the GI50 (OVCAR-3) was > 100 µM (inactive) and the GI50 (OVCAR-4) was > 100 µM (inactive). For the same compound, the GI50 (OVCAR-5) was > 100 µM (inactive), the GI50 (OVCAR-8) was > 100 µM (inactive) and the GI50 (PC-3) was > 100 µM (inactive). For the same compound, the GI50 (RPMI-8226) was > 100 µM (inactive), the GI50 (RXF 393) was > 100 µM (inactive) and the GI50 (SF-268) was > 100 µM (inactive). The GI50 (SF-295) was > 100 µM (inactive), the GI50 (SF-539) was > 100 µM (inactive) and the GI50 (SK-MEL-28) was > 100 µM (inactive). For the same compound, the GI50 (SK-MEL-2) was > 100 µM (inactive), the GI50 (SK-MEL-5) was > 100 µM (inactive) and the GI50 (SK-OV-3) was > 100 µM (inactive). For the same compound, the GI50 (SN12C) was > 100 µM (inactive), the GI50 (SNB-19) was > 100 µM (inactive) and the GI50 (SR) was > 100 µM (inactive). The GI50 (SW-620) was > 100 µM (inactive), the GI50 (T47D) was > 100 µM (inactive) and the GI50 (TK-10) was > 100 µM (inactive). For the same compound, the GI50 (U-251) was > 100 µM (inactive), the GI50 (UACC-257) was > 100 µM (inactive) and the GI50 (UACC-62) was > 100 µM (inactive). For the same compound, the GI50 (UO-31) was > 100 µM (inactive).

With `CC(C)(C)[Si](C)(C)OCC1OC(n2cnc3c(N)ncnc32)C(O[Si](C)(C)C(C)(C)C)C1O[Si](C)(C)C(C)(C)C` (stereo not drawn) the GI50 (786-0) was 3.66 µM (inactive), the GI50 (A549) was 9.27 µM (inactive) and the GI50 (ACHN) was 6.82 µM (inactive). The GI50 (COLO 205) was 19.5 µM (inactive), the GI50 (DU-145) was 7.93 µM (inactive) and the GI50 (EKVX) was 24.9 µM (inactive). For the same compound, the GI50 (HCT-116) was 6.11 µM (inactive), the GI50 (HCT-15) was 35 µM and the GI50 (HOP-62) was 13.9 µM (inactive). For the same compound, the GI50 (HOP-92) was 33.7 µM (inactive), the GI50 (HT-29) was 9.75 µM (inactive) and the GI50 (Hs-578T) was 15.6 µM (inactive). The GI50 (IGROV-1) was 8.39 µM (inactive), the GI50 (LOX IMVI) was 6.43 µM (inactive) and the GI50 (M14) was 11.1 µM (inactive). For the same compound, the GI50 (MDA-MB-231) was 10.9 µM (inactive), the GI50 (MDA-N) was 7.14 µM (inactive) and the GI50 (MOLT-4) was 2.04 µM (inactive). For the same compound, the GI50 (Malme-3M) was 44.9 µM (inactive), the GI50 (NCI-H460) was 4.11 µM (inactive) and the GI50 (NCI-H522) was 7.76 µM (inactive). The GI50 (NCI/ADR-RES) was > 100 µM (inactive), the GI50 (OVCAR-3) was 2.87 µM (inactive) and the GI50 (OVCAR-8) was 14.1 µM (inactive). For the same compound, the GI50 (PC-3) was 2.85 µM (inactive), the GI50 (SF-268) was 15.1 µM (inactive) and the GI50 (SF-295) was 10.3 µM (inactive). For the same compound, the GI50 (SK-MEL-2) was 15.2 µM (inactive), the GI50 (SK-MEL-5) was 3.65 µM (inactive) and the GI50 (SK-OV-3) was > 10 µM (inactive). For the same compound, the GI50 (SN12C) was 14.9 µM (inactive), the GI50 (SNB-75) was 13.4 µM (inactive) and the GI50 (SR) was 10.3 µM (inactive). For the same compound, the GI50 (SW-620) was 10.8 µM (inactive), the GI50 (T47D) was 11.9 µM (inactive) and the GI50 (UACC-257) was 6.17 µM (inactive). For the same compound, the GI50 (UACC-62) was 7.41 µM (inactive).

In the case of `CC(=O)OCC1OC(n2c(-c3ccc(C)cc3)cc(-c3ccco3)c(C#N)c2=O)C(OC(C)=O)C(OC(C)=O)C1OC(C)=O` (stereo not drawn), the GI50 (HL-60) is reported as 2.72 µM (inactive) and the GI50 (NCI-H460) is reported as 2.59 µM (inactive).

With `COC(=O)C1C(O)CCC2CN3CCc4c([nH]c5ccccc45)C3CC21` (stereo not drawn) the GI50 (A498) was > 100 µM (inactive), the GI50 (COLO 205) was > 100 µM (inactive) and > 68.7 µM (inactive) and the GI50 (DU-145) was > 100 µM (inactive) and > 87.7 µM (inactive). The GI50 (EKVX) was > 91 µM (inactive), the GI50 (HCC 2998) was > 100 µM (inactive) and the GI50 (HCT-116) was > 100 µM (inactive). The GI50 (HCT-15) was > 67.3 µM, the GI50 (HOP-92) was > 51.4 µM (inactive) and the GI50 (HT-29) was > 100 µM (inactive) and 72.8 µM (inactive). The GI50 (Hs-578T) was > 100 µM (inactive), the GI50 (IGROV-1) was 67.1 µM (inactive) and the GI50 (K562) was > 100 µM (inactive). For the same compound, the GI50 (KM12) was > 95.1 µM (inactive), the GI50 (LOX IMVI) was > 100 µM (inactive) and the GI50 (M14) was > 100 µM (inactive). For the same compound, the GI50 (MCF7) was > 100 µM (inactive) and > 72.9 µM (inactive), the GI50 (MDA-MB-231) was > 100 µM (inactive) and the GI50 (MDA-N) was > 100 µM (inactive) and > 92 µM (inactive). The GI50 (Malme-3M) was > 68.1 µM (inactive), the GI50 (NCI-H226) was > 100 µM (inactive) and the GI50 (NCI-H23) was > 100 µM (inactive). The GI50 (NCI-H522) was > 100 µM (inactive), the GI50 (NCI/ADR-RES) was > 100 µM (inactive) and the GI50 (OVCAR-5) was > 66.2 µM (inactive). The GI50 (OVCAR-8) was > 100 µM (inactive), the GI50 (RPMI-8226) was > 100 µM (inactive) and the GI50 (RXF 393) was > 100 µM (inactive). For the same compound, the GI50 (SF-268) was > 78 µM (inactive), the GI50 (SF-295) was > 100 µM (inactive) and the GI50 (SF-539) was > 100 µM (inactive). The GI50 (SK-MEL-2) was > 100 µM (inactive) and > 80.5 µM (inactive), the GI50 (SK-MEL-5) was > 100 µM (inactive) and the GI50 (SN12C) was > 100 µM (inactive). For the same compound, the GI50 (SNB-75) was 56 µM (inactive), the GI50 (T47D) was > 71.4 µM (inactive) and the GI50 (TK-10) was > 100 µM (inactive). The GI50 (UACC-257) was > 87.1 µM (inactive), the GI50 (UACC-62) was > 100 µM (inactive) and the GI50 (UO-31) was 54.2 µM (inactive).
